Assay results reported in PubChem BioAssay (NCI).
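Growth conditions: 96-well plates. Treatment: test compound, 48 hours, 5 concentrations. Analysis: linear interpolation between bracketing concentrations; unreached endpoints set to highest concentration. TGI: concentration producing complete growth inhibition.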

What was measured:
Assay in all cases: DTP human tumour cell line panel, 48 h
OVCAR-3 ovarian = system: OVCAR-3 ovarian
A498 renal = system: A498 renal
HCT-15 colon = system: HCT-15 colon
HL-60(TB) leukemia = system: HL-60(TB) leukemia
NCI-H23 lung = system: NCI-H23 lung
M19-MEL melanoma = system: M19-MEL melanoma
HCC-2998 colon = system: HCC-2998 colon
SK-OV-3 ovarian = system: SK-OV-3 ovarian
SF-295 CNS = system: SF-295 CNS
SF-539 CNS = system: SF-539 CNS
OVCAR-4 ovarian = system: OVCAR-4 ovarian
HOP-62 NSCLC = system: HOP-62 NSCLC
MOLT-4 leukemia = system: MOLT-4 leukemia
IGROV1 ovarian = system: IGROV1 ovarian
UACC-257 melanoma = system: UACC-257 melanoma
A549 NSCLC = system: A549 NSCLC
DMS 273 small cell lung = system: DMS 273 small cell lung
COLO 205 colon = system: COLO 205 colon
MALME-3M melanoma = system: MALME-3M melanoma
LXFL 529 NSCLC = system: LXFL 529 NSCLC
UO-31 renal = system: UO-31 renal
LOX IMVI melanoma = system: LOX IMVI melanoma
U251 CNS = system: U251 CNS
KM20L2 colon = system: KM20L2 colon
DLD-1 colon = system: DLD-1 colon
SR leukemia = system: SR leukemia
SNB-78 CNS = system: SNB-78 CNS
TK-10 renal = system: TK-10 renal
786-0 renal = system: 786-0 renal
CAKI-1 renal = system: CAKI-1 renal
SF-268 CNS = system: SF-268 CNS
SW-620 colon = system: SW-620 colon
M14 melanoma = system: M14 melanoma
DMS 114 small cell lung = system: DMS 114 small cell lung
NCI-H460 lung = system: NCI-H460 lung
SNB-75 CNS = system: SNB-75 CNS
EKVX NSCLC = system: EKVX NSCLC
UACC-62 melanoma = system: UACC-62 melanoma
SN12C renal = system: SN12C renal
HOP-92 NSCLC = system: HOP-92 NSCLC
K-562 leukemia = system: K-562 leukemia
XF 498 CNS = system: XF 498 CNS
CCRF-CEM leukemia = system: CCRF-CEM leukemia
RPMI-8226 leukemia = system: RPMI-8226 leukemia
OVCAR-8 ovarian = system: OVCAR-8 ovarian
SNB-19 CNS = system: SNB-19 CNS
RXF 393 renal = system: RXF 393 renal
HT29 colon = system: HT29 colon
OVCAR-5 ovarian = system: OVCAR-5 ovarian
HCT-116 colon = system: HCT-116 colon
SK-MEL-5 melanoma = system: SK-MEL-5 melanoma
NCI-H226 lung = system: NCI-H226 lung
NCI-H522 lung = system: NCI-H522 lung
KM12 colon = system: KM12 colon
SK-MEL-28 melanoma = system: SK-MEL-28 melanoma
ACHN renal = system: ACHN renal
SK-MEL-2 melanoma = system: SK-MEL-2 melanoma

Measured: TGI

CCOC(=O)CNC(SC)=C(C#N)C#N
not listed: SK-MEL-28 melanoma | ACHN renal | SK-MEL-2 melanoma
> 100 µM: all other assays above

O=C(N/C(=C\c1ccc([N+](=O)[O-])cc1)c1nc2[nH]c(=S)[nH]c(=O)c2[nH]1)c1ccccc1
not listed: A498 renal | HL-60(TB) leukemia | HOP-62 NSCLC | UACC-257 melanoma | DMS 273 small cell lung | LOX IMVI melanoma | NCI-H460 lung | SNB-75 CNS | RPMI-8226 leukemia | HCT-116 colon | NCI-H226 lung
> 100 µM: all other assays above
